For the assay, the target named is human glucagon receptor (Homo sapiens (Human), UniProt P47871). Put plainly: Glucagon cAMP Assay (Cisbio cAMP detection). The conditions noted are these: CHOK1 cells stably transfected with the human glucagon receptor; block of glucagon induced cAMP production; Kb by modified Cheng-Prusoff equation. It counts as cell-based. How it is done: The Cisbio cAMP detection assay is used to determine the ability of punitive glucagon antagonist to block glucagon induced cAMP production. Potential glucagon antagonists are re-suspended and diluted in 100% DMSO. Prior to use in the Glucagon cAMP assay 100×DMSO compound stocks are diluted 20× with DMEM-F12 media (Invitrogen) containing either 0.1% or 4% BSA. […] 2 μls of 5% DMSO or known glucagon antagonist are added to each plate to define the assay window. CHOK1 cells stably transfected with the human glucagon receptor are removed from culture flasks with cell dissociation buffer. Cell pellets are re-suspended, at a concentration of 8.3e^5 cells/ml in DMEM-F12 with or without 4% BSA and 200 uM IBMX. 6 μls of cell suspensions are added to the assay plates. Plates are incubated for 20 min at room temperature prior to the addition of a 100 μM challenge dose of glucagon. On a separate plate glucagon dose response curves are run to determine the EC50 of glucagon. After a 30 min room temperature incubation the reaction is terminated by the addition of lysis buffer containing the cAMP detection reagents. Plates are incubated for an additional 60 min at room temperature prior to being read on the Perkin Elmer fluorescent plate reader. Raw is converted to nM of cAMP produced based on a cAMP standard curve. Converted data is then analyzed using the Pfizer data analysis program. IC50 values are determined from the generated sigmoidal dose response curves. Kb values are calculated using a modified Cheng-Prusoff equation. N is the number of times the compound was assayed.
Sequence of human glucagon receptor (P47871 26-477): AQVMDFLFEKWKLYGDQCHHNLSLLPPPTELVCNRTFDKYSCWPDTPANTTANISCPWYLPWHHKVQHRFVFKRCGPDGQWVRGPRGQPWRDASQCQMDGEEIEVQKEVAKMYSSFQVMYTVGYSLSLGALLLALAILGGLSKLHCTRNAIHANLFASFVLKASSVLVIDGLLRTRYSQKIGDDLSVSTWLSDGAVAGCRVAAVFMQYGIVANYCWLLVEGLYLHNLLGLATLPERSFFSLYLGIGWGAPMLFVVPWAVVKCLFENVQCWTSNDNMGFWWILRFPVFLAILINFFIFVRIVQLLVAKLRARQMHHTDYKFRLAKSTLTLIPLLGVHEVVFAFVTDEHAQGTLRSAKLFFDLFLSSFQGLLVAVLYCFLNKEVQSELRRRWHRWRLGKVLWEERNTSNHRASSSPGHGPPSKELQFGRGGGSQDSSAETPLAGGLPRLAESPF

In the case of `CCCC(Nc1ccc(-n2cnc(C(F)(F)F)c2)c(C)c1)c1ccc(C(=O)NCCC(=O)O)cc1` (racemic) [Example 1, (+/−)-3-(4-(1-(3-methyl-4-(4-(trifluoromethyl)-1H-imidazol-1-yl)phenylamino)butyl)benzamido)propanoic acid], the Kb is 1500 nM.

As for `CC(C)CC(Oc1ccc(C(=O)NCCC(=O)O)cc1)c1ccc(-n2cnc(C(F)(F)F)c2)cc1` (racemic) [Example 2, (+/−)-3-(4-(3-methyl-1-(4-(4-(trifluoromethyl)-1H-imidazol-1-yl)phenyl)butoxy)benzamido)propanoic acid], the Kb amounted to 5280 nM.

`CCCC(Oc1ccc(-n2cc(C(F)(F)F)cn2)cc1)c1ccc(C(=O)NCCC(=O)O)cn1` (racemic) [Example 3, (+/−)-3-(6-(1-(4-(4-(trifluoromethyl)-1H-pyrazol-1-yl)phenoxy)butyl)nicotinamido)propanoic acid] gave a Kb of 1820 nM.

In turn, `CC(C)CC(Cc1ccc(-n2cc(C(F)(F)F)cn2)cc1)c1ccc(C(=O)NCCC(=O)O)cc1` (racemic) [Example 4, (+/−)-3-(4-(4-methyl-1-(4-(4-(trifluoromethyl)-1H-pyrazol-1-yl)phenyl)pentan-2-yl)benzamido)propanoic acid] yielded a Kb of 1270 nM.

Turning to `O=C(O)CCNC(=O)c1ccc(C(Nc2ccc(-n3cnc(C(F)(F)F)c3)nc2)C2CCCC2)cc1` (racemic) [Example 8, (+/−)-3-(4-(cyclopentyl(6-(4-(trifluoromethyl)-1H-imidazol-1-yl)pyridine-3-ylamino)methyl)benzamido)propanoic acid], the Kb worked out at 155 nM.

Take `CCCC(Nc1ccc(-n2cnc(C(F)(F)F)c2)nc1)c1ccc(C(=O)NCCC(=O)O)cc1` (racemic) [Example 9, (+/−)-3-(4-(1-(6-(4-(trifluoromethyl)-1H-imidazol-1-yl)pyridine-3-ylamino)butyl)benzamido)propanoic acid]: the Kb amounted to 572 nM.

`CCCC(Oc1ccc(-n2cc(SC)cn2)cc1)c1ccc(C(=O)NCCC(=O)O)cc1` (racemic) [Example 20, (+/−)-3-(4-(1-(4-(4-(methylthio)-1H-pyrazol-1-yl)phenoxy)butyl)benzamido)propanoic acid]: the Kb came out at 800 nM.

`CCCC(Oc1ccc(-n2ccc(C(C)(C)C)n2)cc1)c1ccc(C(=O)NCCC(=O)O)cc1` (racemic) [Example 21, (+/−)-3-(4-(1-(4-(3-tert-butyl-1-1H-pyrazol-1-yl)phenoxy)butyl)benzamido)propanoic acid] came in with a Kb of 824 nM.

Compound `CCCC(Oc1ccc(-n2cc(CC)c(C)n2)cc1)c1ccc(C(=O)NCCC(=O)O)cc1` (racemic) [Example 24, (+/−)-3-(4-(1-(4-(4-ethyl-3-methyl-1H-pyrazol-1-yl)phenoxy)butyl)benzamido)propanoic acid] returned a Kb of 1030 nM.

In the case of `CCCC(Oc1ccc(-n2nc(CC)cc2CC)cc1)c1ccc(C(=O)NCCC(=O)O)cc1` (racemic) [Example 25, (+/−)-3-(4-(1-(4-(3,5-diethyl-1H-pyrazol-1-yl)phenoxy)butyl)benzamido)propanoic acid], the Kb stood at 1120 nM.

Take `CCCC(Oc1ccc(-n2ccc(C(C)C)n2)cc1)c1ccc(C(=O)NCCC(=O)O)cc1` (racemic) [Example 27, (+/−)-3-(4-(1-(4-(3-isopropyl-1H-pyrazol-1-yl)phenoxy)butyl)benzamido)propanoic acid]: the Kb is 1080 nM.

Compound `CCCC(Oc1ccc(-n2ccc(C)n2)cc1)c1ccc(C(=O)NCCC(=O)O)cc1` (racemic) [Example 29, (+/−)-3-(4-(1-(4-(3-methyl-1H-pyrazol-1-yl)phenoxy)butyl)benzamido)propanoic acid] came in with a Kb of 1360 nM.

`CCCC(Oc1ccc(-n2nccn2)cc1)c1ccc(C(=O)NCCC(=O)O)cc1` (racemic) [Example 30, (+/−)-3-(4-(1-(4-(2H-1,2,3-triazol-2-yl)phenoxy)butyl)benzamido)propanoic acid] came in with a Kb of 1410 nM.

Compound `CCCC(Oc1ccc(-n2nc(C)cc2OCC)cc1)c1ccc(C(=O)NCCC(=O)O)cc1` (racemic) [Example 32, (+/−)-3-(4-(1-(4-(5-ethoxy-3-methyl-1H-pyrazol-1-yl)phenoxy)butyl)benzamido)propanoic acid] returned a Kb of 1590 nM.

As for `CCCC(Oc1ccc(-n2nc(C)cc2OC)cc1)c1ccc(C(=O)NCCC(=O)O)cc1` (racemic) [Example 33, (+/−)-3-(4-(1-(4-(5-methoxy-3-methyl-1H-pyrazol-1-yl)phenoxy)butyl)benzamido)propanoic acid], the Kb was 1560 nM.

On to `CCCCc1cn(-c2ccc(OC(CCC)c3ccc(C(=O)NCCC(=O)O)cc3)cc2)cn1` (racemic) [Example 34, (+/−)-3-(4-(1-(4-(4-butyl-1H-imidazol-1-yl)phenoxy)butyl)benzamido)propanoic acid], for which the Kb turned out to be 1710 nM.

In turn, `CCCC(Oc1ccc(-n2c(C)c(C)c(C)c2C#N)cc1)c1ccc(C(=O)NCCC(=O)O)cc1` (racemic) [Example 35, (+/−)-3-(4-(1-(4-(2-cyano-3,4,5-trimethyl-1H-pyrrol-1-yl)phenoxy)butyl)benzamido)propanoic acid] came in with a Kb of 1790 nM.

For the compound `CCCC(Oc1ccc(-n2cc(C)c(C#N)c2C)cc1)c1ccc(C(=O)NCCC(=O)O)cc1` (racemic) [Example 36, (+/−)-3-(4-(1-(4-(3-cyano-2,4-dimethyl-1H-pyrrol-1-yl)phenoxy)butyl)benzamido)propanoic acid], the Kb was found to be 1820 nM.

With `CCCC(Oc1ccc(-n2ccc(C)c2C#N)cc1)c1ccc(C(=O)NCCC(=O)O)cc1` (racemic) [Example 37, (+/−)-3-(4-(1-(4-(2-cyano-3-methyl-1H-pyrrol-1-yl)phenoxy)butyl)benzamido)propanoic acid], the Kb amounted to 1760 nM.

For the compound `CCCc1ccn(-c2ccc(OC(CCC)c3ccc(C(=O)NCCC(=O)O)cn3)cc2)n1` (racemic) [Example 38, (+/−)-3-(6-(1-(4-(3-propyl-1H-pyrazol-1-yl)phenoxy)butyl)nicotinamido)propanoic acid], the Kb stood at 2130 nM.

As for `CCCC(Oc1ccc(-n2cc(C)c(C)n2)cc1)c1ccc(C(=O)NCCC(=O)O)cc1` (racemic) [Example 39, (+/−)-3-(4-(1-(4-(3,4-dimethyl-1H-pyrazol-1-yl)phenoxy)butyl)benzamido)propanoic acid], the Kb came to 2460 nM.

As for `CCCC(Oc1ccc(-n2ccn3nccc23)cc1)c1ccc(C(=O)NCCC(=O)O)cc1` (racemic) [Example 41, (+/−)-3-(4-(1-(4-(1H-imidazo[1,2-b]pyrazol-1-yl)phenoxy)butyl)benzamido)propanoic acid], the Kb was 2840 nM.

Compound `CCCC(Oc1ccc(-n2ccc(CC)n2)cc1)c1ccc(C(=O)NCCC(=O)O)cc1` (racemic) [Example 42, (+/−)-3-(4-(1-(4-(3-ethyl-1H-pyrazol-1-yl)phenoxy)butyl)benzamido)propanoic acid] yielded a Kb of 2810 nM.

In turn, `CCCC(Oc1ccc(-n2cnc(Cl)c2C)cc1)c1ccc(C(=O)NCCC(=O)O)cc1` (racemic) [Example 43, (+/−)-3-(4-(1-(4-(4-chloro-5-methyl-1H-imidazol-1-yl)phenoxy)butyl)benzamido)propanoic acid] registered a Kb of 2910 nM.

As to `CCCC(Oc1ccc(-n2cnc(CC)c2CC)cc1)c1ccc(C(=O)NCCC(=O)O)cc1` (racemic) [Example 44, (+/−)-3-(4-(1-(4-(4,5-diethyl-1H-imidazol-1-yl)phenoxy)butyl)benzamido)propanoic acid], the Kb is 3110 nM.

For the compound `CCCC(Oc1ccc(-n2nc(C)cc2C)cc1)c1ccc(C(=O)NCCC(=O)O)cc1` (racemic) [Example 45, (+/−)-3-(4-(1-(4-(3,5-dimethyl-1H-pyrazol-1-yl)phenoxy)butyl)benzamido)propanoic acid], the Kb was found to be 3350 nM.

In the case of `CCCC(Oc1ccc(-n2cnc(C)n2)cc1)c1ccc(C(=O)NCCC(=O)O)cc1` (racemic) [Example 46, (+/−)-3-(4-(1-(4-(3-methyl-1H-1,2,4-triazol-1-yl)phenoxy)butyl)benzamido)propanoic acid], the Kb worked out at 6890 nM.

For `CCCC(Oc1ccc(-n2cncn2)cc1)c1ccc(C(=O)NCCC(=O)O)cc1` (racemic) [Example 47, (+/−)-3-(4-(1-(4-(1H-1,2,4-triazol-1-yl)phenoxy)butyl)benzamido)propanoic acid], the Kb is 7810 nM.

Turning to `CCCCc1nccn1-c1ccc(OC(CCC)c2ccc(C(=O)NCCC(=O)O)cc2)cc1` (racemic) [Example 48, (+/−)-3-(4-(1-(4-(2-butyl-1H-imidazol-1-yl)phenoxy)butyl)benzamido)propanoic acid], the Kb was found to be 8150 nM.

`CCCC(Oc1ccc(-n2cnc(C)c2C)cc1)c1ccc(C(=O)NCCC(=O)O)cc1` (racemic) [Example 49, (+/−)-3-(4-(1-(4-(4,5-dimethyl-1H-imidazol-1-yl)phenoxy)butyl)benzamido)propanoic acid] displayed a Kb of 10300 nM.

Regarding `CCCC(Oc1ccc(-c2cnn(CCC)c2)cc1)c1ccc(C(=O)NCCC(=O)O)cc1` (racemic) [Example 50, (+/−)-3-(4-(1-(4-(1-propyl-1H-pyrazol-4-yl)phenoxy)butyl)benzamido)propanoic acid], the Kb amounted to 1560 nM.

Values taken from patent publication US8507533B2, “Glucagon receptor modulators” (Pfizer Inc., priority 2011, dated 2013).
